Laboratory results reported in paper PMC10869644 (Molecular plant, 2024).

Biological target: T1, ABA2 (ABA DEFICIENT 2) (Arabidopsis thaliana, UniProt Q9C826)
T1 sequence (Q9C826 1-285 limits assumed): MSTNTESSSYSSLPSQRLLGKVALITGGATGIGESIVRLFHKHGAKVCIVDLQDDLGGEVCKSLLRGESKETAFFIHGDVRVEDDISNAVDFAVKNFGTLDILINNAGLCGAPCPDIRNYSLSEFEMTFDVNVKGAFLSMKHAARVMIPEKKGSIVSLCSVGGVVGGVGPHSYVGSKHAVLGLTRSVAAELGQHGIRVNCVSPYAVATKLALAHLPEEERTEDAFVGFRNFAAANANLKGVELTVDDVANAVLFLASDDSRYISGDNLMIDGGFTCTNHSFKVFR
Experiment: NADH formation at A340, dehydrogenase activity
Type: biochemical
Conditions: 500 μM NAD+, 30 mM 3,5,5′-trimethylcyclohexanol, 100 mM K2HPO4 pH 7.2, 25°C; noncompetitive

**Q.** With di-18:1-PA as the substance, how does the “% decrease of activity (2 μg lipid)” value read?
**A.** Its value is 75%.
